14 compounds from patent US9056867B2, “N-substituted heterocyclyl carboxamides” (NOVARTIS AG, priority 2011, dated 2015) can be followed below.

Like-named read-outs stand apart in the source and are kept apart here.

The target of the test is T1, ΔF508-CFTR channel (Homo sapiens, UniProt P13569, DEL508-508).
T1 construct: expressed in transfected cells
Put plainly: CFTR potentiator assays (membrane potential assay, IonWorks Quattro assay, ion transport assay); the patent does not say which one gave the values. Format: cell-based. The following applies: cells stably expressing ΔF508-CFTR, forskolin present, read-out: Ki values in the data measurements described above. The source says: CFTR activity can be quantified by measuring the transmembrane potential. The means for measuring the transmembrane potential in a biological system can employ a number of methods including electrophysiological and optical fluoresence-based membrane potential assays.
The optical membrane potential assay utilises a negatively charged potentiometric dye, such as the FLIPR membrane potential dye (FMP) (see Baxter D F, Kirk M, Garcia A F, Raimondi A, Holmqvist M H, Flint K K, Bojanic D, Distefano P S, Curtis R, Xie Y. ‘A novel membrane potential-sensitive fluorescent dye improves cell-based assays for ion channels.’ J Biomol Screen. 2002 Feb.; 7(1):79-85) which when extraceullar is bound to a quenching agent. Upon cellular depolarisation the negatively charged dye redistributes to the intracellular compartment, unbinding from the membrane impermeant quench agent, yielding an increase in fluorescence. This change in fluoresence is proportional to the change in transmembrane potential which can result from the activity of CFTR. The changes in fluorescence can be monitored in real time by an appropriately equipped fluorescence detector such as the FLIPR (fluorometric imaging plate reader) in 96 or 384-well microtitre plates.
Chinese hamster ovary (CHO) cells stably expressing the ΔF508-CFTR channel were used for membrane potential experiments. Cells were maintained at 37° C. in 5% v/v CO2 at 100% humidity in Modified Eagles medium (MEM) supplemenetd with 8% v/v foetal calf serum, 100 μg/ml methotrexate and 100 U/ml penicillin/streptomycin. Cells were grown in 225 cm^2 tissue culture flasks. For membrane potential assays cells were seeded into 96 well plates at 40,000 cells per well, allowed to adhere and then maintained at 26° C. for 48 h to facilitate channel insertion.
The membrane potential screening assay utilised a low chloride ion containing extraceullular solution (˜5 mM) combined with a double addition protocol. The first addition was of buffer with or without test compound followed 5 minutes later by an addition of forskolin (1-20 μM)—this protocol favours maximum chloride efflux in response to ΔF508-CFTR activation. The ΔF508-CFTR mediated chloride ion efflux leads to a membrane depolarisation which is optically monitoried by the FMP dye.
Low chloride extracellular (mM): 120 Na-gluconate, 1.2 CaCl2, 3.3 KH2PO4, 0.8 K2HPO4, 1.2 MgCl2, 10.0 D-glucose, 20.0 HEPES, pH 7.4 with NaOH
FMP dye: made up as per manufacuturers instructions in low chloride extracellular solution detailed above, at 10× final concentration, and stored as 1 mL aliquots at −20° C.
CFTR activity can also be quantified electrophysiologically using the whole-cell configuration of the patch clamp technique (Hamill et al Pflugers Acrhive 1981). This assay directly measures the currents associated with chloride flow through CFTR channels whilst either maintaining or adjusting the transmembrane voltage. This assay can use either single glass micropipettes or parallel planar arrays to measure CFTR activity from native or recombinant cell systems. Currents measured using parallel planar arrays can be quantified using an appropriately equipped instrument such as the IonWorks Quattro (Molecular Devices) or the Qpatch (Sophion). The Quattro system can measure CFTR currents from either a single cell per recording well (HT configuration) or alternatively from a population of 64 cells per well (Population Patch Clamp PPC) (Finkel A, Wittel A, Yang N, Handran S, Hughes J, Costantin J. ‘Population patch clamp improves data consistency and success rates in the measurement of ionic currents.’ J Biomol Screen. 2006 Aug.; 11(5):488-96).
Chinese hamster ovary (CHO) cells stably expressing the ΔF508-CFTR channel were used for IonWorks Quattro experiments. […]
On the technique in general: In patch-clamp work, channel activity is measured electrically.

T1 sequence (P13569 with tags, fused parts or gaps DEL508-508): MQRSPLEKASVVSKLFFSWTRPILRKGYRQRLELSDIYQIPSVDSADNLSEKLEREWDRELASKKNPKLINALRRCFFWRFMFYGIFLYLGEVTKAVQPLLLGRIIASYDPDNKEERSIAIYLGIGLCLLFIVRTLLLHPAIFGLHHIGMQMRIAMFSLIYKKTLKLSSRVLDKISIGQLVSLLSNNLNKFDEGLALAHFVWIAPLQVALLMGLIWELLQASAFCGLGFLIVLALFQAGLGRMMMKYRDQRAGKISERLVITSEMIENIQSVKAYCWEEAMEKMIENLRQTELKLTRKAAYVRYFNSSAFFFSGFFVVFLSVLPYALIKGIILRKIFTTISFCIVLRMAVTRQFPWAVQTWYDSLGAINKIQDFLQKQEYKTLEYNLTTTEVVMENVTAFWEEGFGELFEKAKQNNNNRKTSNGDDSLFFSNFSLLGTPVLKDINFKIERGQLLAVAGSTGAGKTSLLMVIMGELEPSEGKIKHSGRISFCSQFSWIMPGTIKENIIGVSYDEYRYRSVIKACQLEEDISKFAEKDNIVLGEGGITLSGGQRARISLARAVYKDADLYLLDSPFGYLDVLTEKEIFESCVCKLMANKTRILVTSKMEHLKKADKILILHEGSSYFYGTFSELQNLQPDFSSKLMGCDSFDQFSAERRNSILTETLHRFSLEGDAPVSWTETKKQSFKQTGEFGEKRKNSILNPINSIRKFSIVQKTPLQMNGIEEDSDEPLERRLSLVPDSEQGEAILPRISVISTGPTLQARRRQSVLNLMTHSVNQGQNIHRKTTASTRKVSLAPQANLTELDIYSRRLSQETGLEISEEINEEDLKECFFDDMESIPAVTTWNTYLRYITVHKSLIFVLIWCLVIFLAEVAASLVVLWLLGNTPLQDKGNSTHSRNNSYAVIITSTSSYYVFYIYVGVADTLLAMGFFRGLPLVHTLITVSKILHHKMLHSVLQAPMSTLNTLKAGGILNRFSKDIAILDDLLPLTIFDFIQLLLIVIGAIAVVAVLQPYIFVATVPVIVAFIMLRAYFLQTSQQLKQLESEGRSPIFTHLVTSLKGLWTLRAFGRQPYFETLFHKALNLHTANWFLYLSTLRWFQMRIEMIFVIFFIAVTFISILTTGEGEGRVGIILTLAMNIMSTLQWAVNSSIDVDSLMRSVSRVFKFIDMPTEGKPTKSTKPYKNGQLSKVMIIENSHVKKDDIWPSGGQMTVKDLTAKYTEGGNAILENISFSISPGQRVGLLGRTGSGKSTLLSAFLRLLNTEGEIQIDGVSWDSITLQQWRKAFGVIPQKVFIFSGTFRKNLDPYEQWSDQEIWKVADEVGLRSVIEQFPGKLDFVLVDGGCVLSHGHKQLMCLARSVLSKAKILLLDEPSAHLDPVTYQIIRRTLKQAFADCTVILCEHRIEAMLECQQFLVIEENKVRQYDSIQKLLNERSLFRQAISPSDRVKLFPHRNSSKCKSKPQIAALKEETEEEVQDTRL

For orientation: Ki means the equilibrium dissociation constant of an inhibitor or competing ligand from its target. For `Nc1cc(C(F)(F)F)c(Cl)nc1C(=O)Nc1ccn[nH]1` [Example 22, 3-Amino-6-chloro-N-(1H-pyrazol-5-yl)-5-(trifluoromethyl)picolinamide], the Ki (values given in μM) was 0.025 µM. Consider `Cc1nnc(-c2ccc(-c3nc(C(=O)Nc4ccn[nH]4)c(N)cc3C(F)(F)F)cc2)o1` [Example 26.3, 3-Amino-6-[4-(5-methyl-[1,3,4]oxadiazol-2-yl)-phenyl]-5-trifluoromethyl-pyridine-2-carboxylic acid (2H-pyrazol-3-yl)-amide], for which the Ki (values given in μM) was found to be 0.16 µM. On to `Nc1nc(C(F)(F)F)c(Cl)nc1C(=O)Nc1ccn[nH]1` [Example 14, 3-Amino-6-chloro-5-trifluoromethyl-pyrazine-2-carboxylic acid (2H-pyrazole-3-yl)amide], for which, where the note is “values given in μM”, the Ki came out at 0.255 µM. In the case of `Nc1nc(C(F)(F)F)c(Br)nc1C(=O)Nc1nc(Cc2ccccc2)n[nH]1` [Example 24, 3-Amino-N-(3-benzyl-1H-1,2,4-triazol-5-yl)-6-bromo-5-(trifluoromethyl)pyrazin-2-carboxamide], the Ki (values given in μM) is 0.02 µM.

With `COc1ncccc1-c1nc(C(=O)Nc2cc[nH]n2)c(N)cc1C(F)(F)F` [Example 25.3, 5-Amino-2′-methoxy-3-trifluoro methyl-[2,3′]bipyridinyl-6-carboxylic acid (1H-pyrazol-3-yl)-amide], for the setting “values in nM”, the Ki came out at 0.014 µM. On to `Nc1cc(C(F)(F)F)c(-c2cccc(CN3CCCC3=O)c2)nc1C(=O)Nc1ccn[nH]1` [Example 26.1, 3-Amino-6-[3-(2-oxo-pyrrolidin-1-ylmethyl)-phenyl]-5-trifluoromethyl-pyridine-2-carboxylic acid (2H-pyrazol-3-yl)-amide], for which the Ki (values in nM) amounted to 0.03 µM. On to `COc1ccc(-c2nc(C(=O)Nc3ccn[nH]3)c(N)cc2C(F)(F)F)cn1` [Example 26.2, 5-Amino-6′-methoxy-3-trifluoromethyl-[2,3′]bipyridinyl-6-carboxylic acid (2H-pyrazol-3-yl)-amide], for which the Ki (values in nM) stood at 0.045 µM. `Cc1cn[nH]c1NC(=O)c1nc(C(F)(F)F)c(C(F)(F)F)nc1N` [Example 27, 3-Amino-5,6-bis-trifluoromethyl-pyrazine-2-carboxylic acid (4-methyl-2H-pyrazol-3-yl)-amide]: for the setting “values in nM”, the Ki was 0.019 µM. For `Nc1cc(C(F)(F)F)c(Br)nc1C(=O)Nc1ccn[nH]1` [Example 7, 3-Amino-6-bromo-5-trifluoromethyl-pyridine-2-carboxylic acid (2H-pyrazol-3-yl)-amide], the Ki (values given in μM) worked out at 0.01 µM. Regarding `Cc1cc(Cl)ccc1-c1nc(C(=O)Nc2ccn[nH]2)c(N)cc1C(F)(F)F` [Example 25.2, 3-Amino-6-(4-chloro-2-methyl-phenyl)-5-trifluoro methyl-pyridine-2-carboxylic acid (2H-pyrazol-3-yl)-amide], the Ki (values in nM) was determined as 0.013 µM. On to `Nc1cc(C(F)(F)F)c(Br)nc1C(=O)Nc1n[nH]c2nccnc12` [Example 18, 3-Amino-6-bromo-N-(1H-pyrazolo[4,3-b]pyrazin-3-yl)-5-(trifluoromethyl)picolinamide], for which the Ki (values given in μM) was 0.004 µM. For `Nc1nc(C(F)(F)F)c(Br)nc1C(=O)Nc1[nH]ncc1-c1ccccn1` [Example 19, 3-Amino-6-bromo-N-(4-(pyridin-2-yl)-1H-pyrazol-5-yl)-5-(trifluoromethyl)pyrazine-2-carboxamide], the Ki (values given in μM) turned out to be 1.55 µM. For the compound `Nc1cc(C(F)(F)F)c(-c2ccc(F)cc2)nc1C(=O)Nc1cc[nH]n1` [Example 25.1, 3-Amino-6-(4-fluorophenyl)-N-(1H-pyrazol-3-yl)-5-(trifluoromethyl)picolinamide], the Ki (values in nM) came out at 0.0038 µM. `Nc1cc(C(F)(F)F)c(Br)nc1C(=O)Nc1cc(C(F)(F)F)n[nH]1` [Example 5, 3-Amino-6-bromo-5-trifluoromethyl-pyridine-2-carboxylic acid (5-trifluoromethyl-2H-pyrazol-3-yl)-amide]: the Ki (values given in μM) amounted to 0.07 µM.
